For 23 molecules, IC50 and DC50 results are on record in US11352350B2, “IRAK degraders and uses thereof” (Kymera Therapeutics, Inc., priority 2018, dated 2022).

Assay [1] deals with OCI-LY10. The assay can be described thus: CTG Cell Viability Assay - OCI-LY10. It counts as cell-based, human. The settings on record: OCI-LY10, 4 days, read-out: CTG Cell Viability Assay - OCI-LY10: Average external-IC50. The method in brief: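 OCI-LY10 cells exposed to 9-dose, 1:3 dilutions from 10 μM top (0.2% DMSO) for 4 days at 37° C, 5% CO2. Viability by CellTiter-Glo luminescence; IC50 from three-parameter logistic fit.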

In assay [2] the target is IRAK4 (Homo sapiens (Human), UniProt Q9NWZ3). The assay can be described thus: IRAK4 MSD degradation in OCI-LY10. It counts as cell-based. As to conditions: MSD. In outline: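 OCI-LY10 cells treated with 8-point 1:3 dilutions (top 1 to 10 μM final) for 4 to 24 h at 37° C. Lysate IRAK4 measured by MSD sandwich immunoassay (2H9 capture, Y279 detection, SULFO-TAG anti-rabbit). DC50 from three-parameter logistic fit.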

Setting [3] is: OCI-LY10, 4 hrs, read-out: IRAK4 MSD degradation in OCI-LY10 at 4 hrs: Average external-Abs DC50.
The mark [4] stands for this setting: OCI-LY10, 24 hrs, read-out: IRAK4 MSD degradation in OCI-LY10 at 24 hrs: Average external-Abs DC50.

pIC50: −log10 of the molar value. Read-outs that look alike come from different tables or passages of the source. Where only a bound is given, the exact number is not on record here.

Chain of IRAK4 (Q9NWZ3 whole entry): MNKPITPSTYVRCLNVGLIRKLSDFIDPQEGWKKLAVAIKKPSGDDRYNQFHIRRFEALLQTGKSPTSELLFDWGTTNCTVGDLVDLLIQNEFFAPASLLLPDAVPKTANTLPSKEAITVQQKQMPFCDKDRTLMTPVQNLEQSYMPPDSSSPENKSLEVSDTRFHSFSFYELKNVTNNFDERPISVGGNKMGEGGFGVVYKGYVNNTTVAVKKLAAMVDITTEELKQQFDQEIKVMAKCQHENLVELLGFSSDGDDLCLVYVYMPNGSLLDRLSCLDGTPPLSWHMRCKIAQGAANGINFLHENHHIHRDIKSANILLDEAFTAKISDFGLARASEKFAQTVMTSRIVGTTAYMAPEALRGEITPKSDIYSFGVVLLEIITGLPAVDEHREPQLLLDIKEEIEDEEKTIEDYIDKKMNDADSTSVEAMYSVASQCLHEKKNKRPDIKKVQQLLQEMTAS

`Cn1c(=O)n(C2CCC(=O)NC2=O)c2cccc(CCCOC3CCN([C@H]4CC[C@@H](Nc5ncnc6ccc(C#N)cc56)CC4)CC3)c21` (some centres unmarked) [I-305, 4-[[4-[4-[3-[1-(2,6-dioxo-3-piperidyl)-3-methyl-2-oxo-benzimidazol-4-yl]propoxy]-1-piperidyl]cyclohexyl]amino]quinazoline-6-carbonitrile]: the pIC50 (commonly −log10 of the IC50, conventionally taken in molar units) in assay [1] (Homo sapiens, OCI-Ly10, 96 h) was less than 6.00. Also, the DC50 in assay [2] (setting [3]) and in assay [2] (setting [4]) was greater than 1000 nM throughout.

`CN(C[C@H]1CC[C@H](n2cc(NC(=O)c3coc(-c4ccnc(NCC5CC5)c4)n3)c(C(F)F)n2)CC1)C1CCN(Cc2cccc3c2n(C)c(=O)n3[C@H]2CCC(=O)NC2=O)CC1` [I-308, 2-(2-((cyclopropylmethyl)amino)pyridin-4-yl)-N-(3-(difluoromethyl)-1-((1S,4r)-4-(((1-((1-((S)-2,6-dioxopiperidin-3-yl)-3-methyl-2-oxo-2,3-dihydro-1H-benzo [d]imidazol-4-yl)methyl)piperidin-4-yl)(methyl)amino)methyl)cyclohexyl)-1H-pyrazol-4-yl)oxazole-4-carboxamide]: the pIC50 in assay [1] (Homo sapiens, OCI-Ly10, 96 h) is greater than 7.30. Moreover, in assay [2] (setting [3]), the DC50 – broadly, the concentration giving 50% degradation – was less than 10 nM.

As to `CN(C[C@H]1CC[C@H](n2cc(NC(=O)c3coc(-c4ccnc(NCC5CC5)c4)n3)c(C(F)F)n2)CC1)C1CCN(Cc2cccc3c2n(C)c(=O)n3[C@@H]2CCC(=O)NC2=O)CC1` [I-309, 2-(2-((cyclopropylmethyl)amino)pyridin-4-yl)-N-(3-(difluoromethyl)-1-((1R,4r)-4-(((1-((1-((R)-2,6-dioxopiperidin-3-yl)-3-methyl-2-oxo-2,3-dihydro-1H-benzo [d]imidazol-4-yl)methyl)piperidin-4-yl)(methyl)amino)methyl)cyclohexyl)-1H-pyrazol-4-yl)oxazole-4-carboxamide], the pIC50 in assay [1] (Homo sapiens, OCI-Ly10, 96 h) was greater than 7.30. Moreover, the DC50 in assay [2] (setting [3]) is 10 to 100 nM.

`Cn1c(=O)n([C@H]2CCC(=O)NC2=O)c2cccc(CCCOC3CCN(C[C@H]4CC[C@H](n5cc(NC(=O)c6cnn7ccc(N8CCOCC8)nc67)c(C(F)F)n5)CC4)CC3)c21` [I-310, N-(3-(difluoromethyl)-1-((1r,4r)-4-((4-(3-(1-((S)-2,6-dioxopiperidin-3-yl)-3-methyl-2-oxo-2,3-dihydro-1H-benzo [d]imidazol-4-yl)propoxy)piperidin-1-yl)methyl)cyclohexyl)-1H-pyrazol-4-yl)-5-morpholinopyrazolo[1,5-a]pyrimidine-3-carboxamide]: the pIC50 in assay [1] (Homo sapiens, OCI-Ly10, 96 h) was less than 6.00. The DC50 in assay [2] (setting [3]) was less than 10 nM.

With `Cn1c(=O)n([C@@H]2CCC(=O)NC2=O)c2cccc(CCCOC3CCN(C[C@H]4CC[C@H](n5cc(NC(=O)c6cnn7ccc(N8CCOCC8)nc67)c(C(F)F)n5)CC4)CC3)c21` [I-311, N-(3-(difluoromethyl)-1-((1r,4r)-4-((4-(3-(1-((R)-2,6-dioxopiperidin-3-yl)-3-methyl-2-oxo-2,3-dihydro-1H-benzo [d]imidazol-4-yl)propoxy)piperidin-1-yl)methyl)cyclohexyl)-1H-pyrazol-4-yl)-5-morpholinopyrazolo[1,5-a] pyrimidine-3-carboxamide], the pIC50 in assay [1] (Homo sapiens, OCI-Ly10, 96 h) is less than 6.00. Further, the DC50 in assay [2] (setting [3]) fell in the range of 10 to 100 nM.

As for `NC[C@H]1CC[C@H](n2cc(NC(=O)c3coc(-c4ccnc(NCC5CC5)c4)n3)c(C(F)F)n2)CC1` [I-312, N-[1-[4-(aminomethyl)cyclohexyl]-3-(difluoromethyl)pyrazol-4-yl]-2-[2-(cyclopropylmethylamino)-4-pyridyl]oxazole-4-carboxamide], the pIC50 in assay [1] (Homo sapiens, OCI-Ly10, 96 h) is less than 6.00. The DC50 in assay [2] (setting [3]) and in assay [2] (setting [4]) was greater than 1000 nM throughout.

As for `NC[C@H]1CC[C@H](n2cc(NC(=O)c3cnn4ccc(N5CCOCC5)nc34)c(C(F)F)n2)CC1` [I-313, N-[l-[4-(aminomethyl)cyclohexyl]-3-(difluoromethyl)pyrazol-4-yl]-5-morpholino-pyrazolo [1,5-a]pyrimidine-3-carboxamide], the pIC50 in assay [1] (Homo sapiens, OCI-Ly10, 96 h) was less than 6.00. Besides, the DC50 in assay [2] (setting [3]) and in assay [2] (setting [4]) was greater than 1000 nM in each case.

With `CC[C@@H]1[C@H](F)C(=O)N[C@@H]1COc1ncc(C#C[C@H]2CC[C@H](CN)CC2)c2cc(C(N)=O)c(OC)cc12` [I-314, 4-[2-[4-(Aminomethyl)cyclohexyl]ethynyl]-1-[[(2S,3S,4S)-3-ethyl-4-fluoro-5-oxo-pyrrolidin-2-yl]methoxy]-7-methoxy-isoquinoline-6-carboxamide], the negative logarithm of the IC50 (pIC50) in assay [1] (Homo sapiens, OCI-Ly10, 96 h) is less than 6.00. Besides, the DC50 in assay [2] (setting [3]) and in assay [2] (setting [4]) was greater than 1000 nM throughout.

Regarding `CN(CCCOCCCN)C[C@H]1CC[C@H](n2cc(NC(=O)c3cnn4ccc(N5CCOCC5)nc34)c(C(F)F)n2)CC1` [I-315, N-[1-[4-[[3-(3-aminopropoxy)propyl-methyl-amino]methyl]cyclohexyl]-3-(difluoromethyl)pyrazol-4-yl]-5-morpholino-pyrazolo[1,5-a] pyrimidine-3-carboxamide], the pIC50 in assay [1] (Homo sapiens, OCI-Ly10, 96 h) is less than 6.00. Further, the DC50 in assay [2] (setting [3]) and in assay [2] (setting [4]) was greater than 1000 nM throughout.

In the case of `CC[C@@H]1[C@H](F)C(=O)N[C@@H]1COc1ncc(C#C[C@H]2CC[C@H](CN(C)CCCOCCCN)CC2)c2cc(C(N)=O)c(OC)cc12` [I-316, 4-[2-[4-[[3-(3-Aminopropoxy)propyl-methyl-amino]methyl]cyclohexyl]ethynyl]-1-[[(2S, 3S, 4S)-3-ethyl-4-fluoro-5-oxo-pyrrolidin-2-yl]methoxy]-7-methoxy-isoquinoline-6-carboxamide], in assay [1] (Homo sapiens, 96 h), the pIC50 was less than 6.00. In addition, the DC50 in assay [2] (setting [3]) and in assay [2] (setting [4]) was greater than 1000 nM each time.

Regarding `O=C1CCC(N2C(=O)c3cccc(NCCCOCCCOCCCN4CCC(n5cc(NC(=O)c6cnn7ccc(N8C[C@H]9C[C@@H]8CO9)nc67)c(C(F)F)n5)CC4)c3C2=O)C(=O)N1` (some centres unmarked) [I-321], the pIC50 in assay [1] was less than 6.00. Moreover, in assay [2] (setting [3]), the DC50 fell in the range of 100 to 1000 nM.

Take `CN1C(=O)CCC(N2Cc3c(OCc4ccc(CN5CCN(C[C@H]6CC[C@H](n7cc(NC(=O)c8cnn9ccc(N%10CCOCC%10)nc89)c(C(F)F)n7)CC6)CC5)cc4)cccc3C2=O)C1=O` (some centres unmarked) [I-322]: the pIC50 in assay [1] (Homo sapiens, OCI-Ly10, 96 h) is less than 6.00. Moreover, the figures for the DC50 in assay [2] (setting [3]) and in assay [2] (setting [4]) were 100 to 1000 nM and greater than 1000 nM, respectively.

For `CN1C(=O)CCC(N2C(=O)c3cccc(NCC4CC5(CCN(C[C@H]6CC[C@H](n7cc(NC(=O)c8cnn9ccc(N%10C[C@H]%11C[C@@H]%10CO%11)nc89)c(C(F)F)n7)CC6)CC5)C4)c3C2=O)C1=O` (some centres unmarked) [I-323], the pIC50 in assay [1] (Homo sapiens, OCI-Ly10, 96 h) is less than 6.00. Further, the DC50 in assay [2] (setting [3]) was 100 to 1000 nM; in assay [2] (setting [4]), greater than 1000 nM.

Take `CN(C[C@H]1CC[C@H](n2cc(NC(=O)c3cnn4ccc(N5C[C@H]6C[C@@H]5CO6)nc34)c(C(F)F)n2)CC1)C1CCC(CNc2cccc3c2C(=O)N(C2CCC(=O)NC2=O)C3=O)CC1` (some centres unmarked) [I-324]: the pIC50 in assay [1] (Homo sapiens, OCI-Ly10, 96 h) was greater than 7.30. Besides, in assay [2] (setting [3]), the DC50 fell in the range of 100 to 1000 nM.

In the case of `CN(Cc1ccc(CCNc2cccc3c2C(=O)N(C2CCC(=O)NC2=O)C3=O)cc1)C[C@H]1CC[C@H](n2cc(NC(=O)c3cnn4ccc(N5CCOCC5)nc34)c(C(F)F)n2)CC1` (some centres unmarked) [I-325], the pIC50 in assay [1] (Homo sapiens, OCI-Ly10, 96 h) is less than 6.00. The DC50 in assay [2] (setting [3]) lay in the range of 100 to 1000 nM; in assay [2] (setting [4]) it was 10 to 100 nM.

For `O=C1CCC(N2Cc3c(OC4CC5(CCN(C[C@H]6CC[C@H](n7cc(NC(=O)c8cnn9ccc(N%10C[C@H]%11C[C@@H]%10CO%11)nc89)c(C(F)F)n7)CC6)CC5)C4)cccc3C2=O)C(=O)N1` (some centres unmarked) [I-328], the pIC50 in assay [1] (Homo sapiens, OCI-Ly10, 96 h) is greater than 7.30. The figures for the DC50 in assay [2] (setting [3]) and in assay [2] (setting [4]) were 10 to 100 nM and less than 10 nM, respectively.

Take `CC[C@H]1C(COc2ncc(C#C[C@H]3CC[C@H](CN(C)Cc4ccc(CCNc5cccc6c5C(=O)N(C5CCC(=O)NC5=O)C6=O)cc4)CC3)c3cc(C(N)=O)c(OC)cc23)NC(=O)[C@H]1F` (some centres unmarked) [I-329]: the pIC50 in assay [1] (Homo sapiens, OCI-Ly10, 96 h) is less than 6.00. Further, in assay [2] (setting [3]), the DC50 lay in the range of 100 to 1000 nM.

In the case of `O=C1CCC(N2Cc3c(NCCCOC4CCN(C[C@H]5CC[C@H](n6cc(NC(=O)c7cnn8ccc(N9CCOCC9)nc78)c(C(F)F)n6)CC5)CC4)cccc3C2=O)C(=O)N1` (some centres unmarked) [I-330], the negative logarithm of the IC50 (pIC50) in assay [1] (Homo sapiens, OCI-Ly10, 96 h) is less than 6.00. Moreover, the DC50 in assay [2] (setting [4]) was less than 10 nM.

On to `O=C1CCC(N2C(=O)c3cccc(NCCCOC[C@H]4CN(C[C@H]5CC[C@H](n6cc(NC(=O)c7cnn8ccc(N9CCOCC9)nc78)c(C(F)F)n6)CC5)CCO4)c3C2=O)C(=O)N1` (some centres unmarked) [I-332], for which, in assay [1] (Homo sapiens, OCI-Ly10, 96 h), the pIC50 is 6.30 to 7.00. The DC50 in assay [2] (setting [3]) fell in the range of 100 to 1000 nM; in assay [2] (setting [4]), 10 to 100 nM.

As for `CC[C@H]1C(COc2ncc(C#C[C@H]3CC[C@H](CN(C)CCN4CCO[C@H](CCNc5cccc6c5C(=O)N(C5CCC(=O)NC5=O)C6=O)C4)CC3)c3cc(C(N)=O)c(OC)cc23)NC(=O)[C@H]1F` (some centres unmarked) [I-334], in assay [1] (Homo sapiens, OCI-Ly10, 96 h), the pIC50 is 6.30 to 7.00. Also, in assay [2] (setting [3]), the DC50 fell in the range of 100 to 1000 nM.

In the case of `CN(CCN(C)CC1CCC(n2cc(NC(=O)c3cnn4ccc(N5C[C@H]6C[C@@H]5CO6)nc34)c(C(F)F)n2)CC1)Cc1ccc(COc2cccc3c2C(=O)N(C2CCC(=O)NC2=O)C3=O)cc1` (some centres unmarked) [I-335], the pIC50 in assay [1] (Homo sapiens, OCI-Ly10, 96 h) was 6.00 to 6.30. Also, in assay [2] (setting [3]), the DC50 lay within 100 to 1000 nM.

Consider `CN(CCc1ccc(CCNc2cccc3c2C(=O)N(C2CCC(=O)NC2=O)C3=O)cc1)C[C@H]1CC[C@H](n2cc(NC(=O)c3cnn4ccc(N5C[C@H]6C[C@@H]5CO6)nc34)c(C(F)F)n2)CC1` (some centres unmarked) [I-336], for which the pIC50 in assay [1] (Homo sapiens, OCI-Ly10, 96 h) is 7.00 to 7.30. For the same molecule, the DC50 in assay [2] (setting [3]) was in the range of 100 to 1000 nM; in assay [2] (setting [4]), 10 to 100 nM.

Regarding `CN(CCN1CCO[C@@H](CCNc2cccc3c2C(=O)N(C2CCC(=O)NC2=O)C3=O)C1)C[C@H]1CC[C@H](n2cc(NC(=O)c3cnn4ccc(N5C[C@H]6C[C@@H]5CO6)nc34)c(C(F)F)n2)CC1` (some centres unmarked) [I-337], in assay [1] (Homo sapiens, OCI-Ly10, 96 h), the negative logarithm of the IC50 (pIC50) is 7.00 to 7.30. Further, the DC50 in assay [2] (setting [3]) fell in the range of 100 to 1000 nM; in assay [2] (setting [4]), 10 to 100 nM.
